Assay results: the NIST ThermoML archive (doi:10.1016/j.fluid.2004.11.019)

Experiment: xn = mol fraction of the nth substance listed
Conditions: Liquid

CCO [ethanol] + O
mass density [kg/m3]
Conditions | 100 kPa | 10000 kPa | 20000 kPa | 30000 kPa | 40000 kPa
323.15 K, x1 = 0.003 | – | – | – | 999 | 1003.1
323.15 K, x1 = 0.0042 | – | – | – | 998 | 1002
323.15 K, x1 = 0.0082 | – | – | – | 996.5 | 1000.5
323.15 K, x1 = 0.0119 | – | – | – | 995.2 | 999.2
323.15 K, x1 = 0.0158 | – | – | – | 993 | 996.9
323.15 K, x1 = 0.0184 | – | – | – | 991.5 | 995.5
323.15 K, x1 = 0.0219 | – | – | – | 990.4 | 994.4
323.15 K, x1 = 0.0255 | – | – | – | 988.7 | 992.7
323.15 K, x1 = 0.0279 | – | – | – | 987.1 | 991.1
323.15 K, x1 = 0.0315 | – | – | – | 986.3 | 990.2
323.15 K, x1 = 0.0366 | – | – | – | 983.6 | 987.6
323.15 K, x1 = 0.0392 | – | – | – | 982.4 | 986.3
323.15 K, x1 = 0.0439 | – | – | – | 980.8 | 984.7
323.15 K, x1 = 0.0483 | – | – | – | 978.8 | 982.7
323.15 K, x1 = 0.0516 | – | – | – | 978 | 982
323.15 K, x1 = 0.0559 | – | – | – | 976.6 | 980.5
323.15 K, x1 = 0.06 | – | – | – | 975.1 | 979.1
323.15 K, x1 = 0.0652 | – | – | – | 973.1 | 977
323.15 K, x1 = 0.0679 | – | – | – | 972.3 | 976.3
323.15 K, x1 = 0.0722 | – | – | – | 970.5 | 974.4
323.15 K, x1 = 0.0801 | – | – | – | 967.4 | 971.4
323.15 K, x1 = 0.084 | – | – | – | 967 | 970.9
323.15 K, x1 = 0.0879 | – | – | – | 965.3 | 969.2
323.15 K, x1 = 0.0926 | – | – | – | 963.7 | 967.6
323.15 K, x1 = 0.0958 | – | – | – | 962.6 | 966.5
323.15 K, x1 = 0.1006 | – | – | – | 961 | 964.9
323.15 K, x1 = 0.1111 | – | – | – | 957.3 | 961.3
323.15 K, x1 = 0.1225 | – | – | 949.2 | 953.4 | 957.4
323.15 K, x1 = 0.1296 | – | – | 946.9 | 951.1 | 955.2
323.15 K, x1 = 0.1402 | – | – | 943.3 | 947.6 | 951.7
323.15 K, x1 = 0.151 | – | – | 939.7 | 944 | 948.2
323.15 K, x1 = 0.1601 | – | – | 936.7 | 941.1 | 945.3
323.15 K, x1 = 0.1703 | – | – | 933.3 | 937.7 | 942
323.15 K, x1 = 0.18 | – | – | 930.1 | 934.6 | 938.9
323.15 K, x1 = 0.1903 | – | – | 926.8 | 931.4 | 935.8
323.15 K, x1 = 0.1996 | – | – | 923.8 | 928.4 | 932.9
323.15 K, x1 = 0.2269 | – | – | 915.3 | 920.1 | 924.7
323.15 K, x1 = 0.2502 | – | – | 908.5 | 913.5 | 918.2
323.15 K, x1 = 0.2745 | – | – | 901.6 | 906.7 | 911.5
323.15 K, x1 = 0.3009 | – | – | 894.7 | 899.8 | 904.8
323.15 K, x1 = 0.35 | – | – | 882.1 | 887.5 | 892.7
323.15 K, x1 = 0.4034 | – | – | 869.8 | 875.5 | 881
323.15 K, x1 = 0.4501 | – | – | 859.7 | 865.7 | 871.3
323.15 K, x1 = 0.498 | – | – | 850.6 | 856.8 | 862.6
323.15 K, x1 = 0.5501 | – | – | 841.2 | 847.6 | 853.6
323.15 K, x1 = 0.5998 | – | – | 833.5 | 839.6 | 845.8
323.15 K, x1 = 0.6489 | – | – | 825.3 | 832.1 | 838.5
323.15 K, x1 = 0.6967 | – | – | 818.4 | 825.4 | 831.9
323.15 K, x1 = 0.7475 | – | – | 811.7 | 818.8 | 825.5
323.15 K, x1 = 0.7996 | – | – | 804.9 | 812.3 | 819.1
323.15 K, x1 = 0.8484 | – | – | 799.1 | 806.6 | 813.6
323.15 K, x1 = 0.8993 | – | – | 793.2 | 800.9 | 808
323.15 K, x1 = 0.9503 | – | – | 787.7 | 795.6 | 802.8
323.15 K, x1 = 1 | – | – | 782.3 | 790.3 | 797.7
348.15 K, x1 = 0.003 | 973.1 | 977.5 | 981.9 | 986.1 | 990.1
348.15 K, x1 = 0.0042 | 971.9 | 976.3 | 980.6 | 984.8 | 988.8
348.15 K, x1 = 0.0082 | 970.7 | 975 | 979.4 | 983.6 | 987.6
348.15 K, x1 = 0.0119 | 969.1 | 973.4 | 977.7 | 981.9 | 986
348.15 K, x1 = 0.0158 | 966.6 | 971 | 975.3 | 979.4 | 983.5
348.15 K, x1 = 0.0184 | 965.4 | 969.6 | 973.9 | 978.1 | 982.1
348.15 K, x1 = 0.0219 | 963.9 | 968.2 | 972.6 | 976.7 | 980.8
348.15 K, x1 = 0.0255 | 962 | 966.4 | 970.7 | 975 | 979
348.15 K, x1 = 0.0279 | 960.4 | 964.8 | 969.1 | 973.3 | 977.3
348.15 K, x1 = 0.0315 | 959.4 | 963.8 | 968 | 972.3 | 976.3
348.15 K, x1 = 0.0366 | 956.7 | 961 | 965.3 | 969.5 | 973.6
348.15 K, x1 = 0.0392 | 955.3 | 959.6 | 963.8 | 968.1 | 972.1
348.15 K, x1 = 0.0439 | 953.5 | 957.8 | 962.1 | 966.3 | 970.4
348.15 K, x1 = 0.0483 | 951.2 | 955.6 | 959.9 | 964.1 | 968.2
348.15 K, x1 = 0.0516 | 950.2 | 954.6 | 958.9 | 963.2 | 967.3
348.15 K, x1 = 0.0559 | 948.8 | 953.2 | 957.5 | 961.7 | 965.9
348.15 K, x1 = 0.06 | 946.9 | 951.3 | 955.8 | 960 | 964.1
348.15 K, x1 = 0.0652 | 944.8 | 949.1 | 953.5 | 957.8 | 961.9
348.15 K, x1 = 0.0679 | 943.7 | 948.2 | 952.5 | 956.8 | 960.9
348.15 K, x1 = 0.0722 | 941.5 | 946.1 | 950.4 | 954.7 | 958.9
348.15 K, x1 = 0.0801 | 938.1 | 942.6 | 947 | 951.3 | 955.6
348.15 K, x1 = 0.084 | 937.5 | 941.9 | 946.3 | 950.7 | 954.9
348.15 K, x1 = 0.0879 | 935.3 | 939.9 | 944.4 | 948.8 | 953
348.15 K, x1 = 0.0926 | 933.6 | 938.1 | 942.6 | 947 | 951.3
348.15 K, x1 = 0.0958 | 932.2 | 936.8 | 941.3 | 945.7 | 950
348.15 K, x1 = 0.1006 | 930.2 | 934.9 | 939.4 | 943.9 | 948.1
348.15 K, x1 = 0.1111 | 925.9 | 930.7 | 935.3 | 939.8 | 944.2
348.15 K, x1 = 0.1225 | 921.5 | 926.3 | 931.1 | 935.6 | 940
348.15 K, x1 = 0.1296 | 918.7 | 923.6 | 928.3 | 932.9 | 937.4
348.15 K, x1 = 0.1402 | 914.6 | 919.5 | 924.4 | 929.1 | 933.7
348.15 K, x1 = 0.151 | 910.4 | 915.4 | 920.3 | 925.1 | 929.7
348.15 K, x1 = 0.1601 | 906.9 | 912.1 | 917.1 | 922 | 926.6
348.15 K, x1 = 0.1703 | 903.1 | 908.4 | 913.5 | 918.4 | 923.1
348.15 K, x1 = 0.18 | 899.5 | 904.8 | 910 | 915 | 919.8
348.15 K, x1 = 0.1903 | 895.8 | 901.3 | 906.5 | 911.6 | 916.4
348.15 K, x1 = 0.1996 | 892.6 | 898.1 | 903.4 | 908.5 | 913.4
348.15 K, x1 = 0.2269 | 883.1 | 888.9 | 894.4 | 899.7 | 904.8
348.15 K, x1 = 0.2502 | 875.6 | 881.6 | 887.3 | 892.8 | 898.1
348.15 K, x1 = 0.2745 | 868 | 874.2 | 880.2 | 885.8 | 891.1
348.15 K, x1 = 0.3009 | 860.4 | 866.8 | 872.9 | 878.6 | 884.2
348.15 K, x1 = 0.35 | 846.7 | 853.6 | 860 | 866.2 | 872
348.15 K, x1 = 0.4034 | 833.4 | 840.7 | 847.5 | 854 | 860
348.15 K, x1 = 0.4501 | 822.7 | 830.3 | 837.4 | 844.2 | 850.5
348.15 K, x1 = 0.498 | 812.7 | 820.7 | 828.1 | 835.1 | 841.6
348.15 K, x1 = 0.5501 | 802.6 | 811 | 818.7 | 825.9 | 832.7
348.15 K, x1 = 0.5998 | 793.8 | 802.5 | 810.5 | 818 | 824.9
348.15 K, x1 = 0.6489 | 785.6 | 794.6 | 802.9 | 810.6 | 817.8
348.15 K, x1 = 0.6967 | 778.2 | 787.6 | 796.1 | 804 | 811.3
348.15 K, x1 = 0.7475 | 770.9 | 780.7 | 789.4 | 797.6 | 805.1
348.15 K, x1 = 0.7996 | 763.9 | 774 | 783 | 791.3 | 799
348.15 K, x1 = 0.8484 | 757.6 | 768 | 777.3 | 785.8 | 793.6
348.15 K, x1 = 0.8993 | 751.5 | 762.1 | 771.6 | 780.3 | 788.3
348.15 K, x1 = 0.9503 | 745.7 | 756.7 | 766.4 | 775.2 | 783.4
348.15 K, x1 = 1 | 739.4 | 751.2 | 761.2 | 770.3 | 778.6
